In patent publication US20100092526A1, “NANOEMULSION THERAPEUTIC COMPOSITIONS AND METHODS OF USING THE SAME” (NanoBio Corporation, priority 2008, published 2010):
In brackets after ≈: the same amount, converted by molar mass. Several values for one entry are separate records, joined by “and”; a condition that tells them apart may be missing. Equal values may be shown once.

System: methicillin-resistant Staphylococcus aureus (MRSA)
Test: Susceptibility (MIC/MBC) of MRSA clinical isolates
Assay type: cell-based
Settings: for MBC50(15) / MIC50(15) / MBC90(26) / MIC90(26): 29 MRSA clinical isolates; for MBC50(15) / MIC50(15): rank 15; for MBC90(26) / MIC90(26): rank 26; for MBC / MIC: individual MRSA clinical isolates, values listed by rank order 1-29

SMILES	MIC50(15) [µg/mL]	MIC90(26) [µg/mL]	MBC50(15) [µg/mL]	MBC90(26) [µg/mL]	MBC	MIC
C[C@H]1COc2c(N3CCN(C)CC3)c(F)cc3c(=O)c(C(=O)O)cn1c23 [Levo]	8 (≈ 22.1 µM)	32 (≈ 88.6 µM)	16 (≈ 44.3 µM)	>64	>64 μg/ml (6×) and 64 μg/ml (2×) and >32 μg/ml and 32 μg/ml (5×) and 16 μg/ml (3×) and 8 μg/ml (4×) and 4 μg/ml and 1 μg/ml and 0.5 μg/ml and 0.25 μg/ml (5×)	>64 μg/ml (2×) and 32 μg/ml (5×) and 16 μg/ml (4×) and 8 μg/ml (5×) and 4 μg/ml (5×) and 2 μg/ml and 0.5 μg/ml and 0.25 μg/ml (3×) and 0.125 μg/ml (3×)
CC(=O)O.NCc1ccc(S(N)(=O)=O)cc1 [Maf. Acet.]			>128	>128	>128 µg/mL	

Continued, in another order:

MIC50(15) [µg/mL]	MIC90(26) [µg/mL]	SMILES	MBC50(15) [µg/mL]	MBC90(26) [µg/mL]	MBC	MIC
>64	>64	CCC[C@@H]1C[C@@H](C(=O)N[C@@H]([C@H]2O[C@H](SC)[C@H](O)[C@@H](O)[C@H]2O)[C@H](C)Cl)N(C)C1 [Clind]	>64	>64	>64 μg/ml (17×) and >2 μg/ml (10×) and 2 μg/ml and 1 μg/ml	>64 μg/ml (17×) and 0.125 μg/ml (12×)
0.25 (≈ 0.563 µM)	4 (≈ 9 µM)	C[C@H]1c2cccc(O)c2C(=O)C2=C(O)[C@]3(O)C(=O)C(C(N)=O)=C(O)[C@@H](N(C)C)[C@@H]3[C@@H](O)[C@@H]21 [Dox]	>4	>64	>128 μg/ml and >64 μg/ml (4×) and >4 μg/ml (21×) and 2 μg/ml and 1 μg/ml (2×)	4 μg/ml (4×) and 0.25 μg/ml (25×)
64 (≈ 87.2 µM)		CC[C@H]1OC(=O)[C@H](C)[C@@H](O[C@H]2C[C@@](C)(OC)[C@@H](O)[C@H](C)O2)[C@H](C)[C@@H](O[C@@H]2O[C@H](C)C[C@H](N(C)C)[C@H]2O)[C@](C)(O)C[C@@H](C)C(=O)[C@H](C)[C@@H](O)[C@]1(C)O [Eryth]			64 μg/ml and >4 μg/ml (4×)	64 μg/ml (6×) and 32 μg/ml (3×) and 16 μg/ml and 8 μg/ml and 0.25 μg/ml (4×)
